Test results reported in the supplement of paper PMC11061612.

What was measured:
AZD8186 = compound: C[C@@H](Nc1cc(F)cc(F)c1)c1cc(C(=O)N(C)C)cc2c(=O)cc(N3CCOCC3)oc12 [AZD8186]
In short: (§1)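 Cancer cell lines were dosed for 72 hours (final DMSO typically 0.2%) after 24 hours at 37°C and 5% CO2 in 1536-well plates containing 7.5 μl DMEM/F12 or RPMI with 10% FBS. Viability came from CellTiter-Glo 2.0 luminescence, scaled between blank-well and DMSO-well means, and dose responses were fitted to a two-parameter logistic curve with a non-linear mixed effects model. The single-agent IC50 was obtained from this fit.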

AZD6738 = compound: C[C@@H]1COCCN1C2=NC(=NC(=C2)C3(CC3)[S@](=N)(=O)C)C4=C5C=CNC5=NC=C4 [AZD6738]; conditions: max 10 µM
In short: as §1

Gefitinib = compound: COc1cc2ncnc(Nc3ccc(F)c(Cl)c3)c2cc1OCCCN1CCOCC1 [Gefitinib]; conditions: max 10 µM
In short: as §1

Selumetinib = compound: Cn1cnc2c(F)c(Nc3ccc(Br)cc3Cl)c(C(=O)NOCCO)cc21 [Selumetinib]; conditions: max 10 µM
In short: as §1

Doxorubicin = compound: COc1cccc2c1C(=O)c1c(O)c3c(c(O)c1C2=O)C[C@@](O)(C(=O)CO)C[C@@H]3O[C@H]1C[C@H](N)[C@H](O)[C@H](C)O1 [Doxorubicin]; conditions: max 1 µM
In short: as §1

Crizotinib = compound: C[C@@H](Oc1cc(-c2cnn(C3CCNCC3)c2)cnc1N)c1c(Cl)ccc(F)c1Cl [Crizotinib]; conditions: max 10 µM
In short: as §1

Savolitinib = compound: C[C@@H](c1ccc2nccn2c1)n1nnc2ncc(-c3cnn(C)c3)nc21 [Savolitinib]; conditions: max 1 µM
In short: as §1

Prexasertib = compound: COc1cccc(OCCCN)c1-c1cc(Nc2cnc(C#N)cn2)n[nH]1 [Prexasertib]; conditions: max 1 µM
In short: as §1

AZD1775 = compound: C=CCn1c(=O)c2cnc(Nc3ccc(N4CCN(C)CC4)cc3)nc2n1-c1cccc(C(C)(C)O)n1 [AZD1775]; conditions: max 3 µM
In short: as §1

AZD5991 = compound: Cc1c2c(nn1C)CSCc1cc(n(C)n1)CSc1cc(c3ccccc3c1)OCCCc1c(C(=O)O)n(C)c3c-2c(Cl)ccc13 [AZD5991]; conditions: max 1 µM
In short: as §1

Dasatinib = compound: CC1=C(C(=CC=C1)Cl)NC(=O)C2=CN=C(S2)NC3=CC(=NC(=N3)C)N4CCN(CC4)CCO [Dasatinib]; conditions: max 2 µM
In short: as §1

SN-38 = compound: CCc1c2c(nc3ccc(O)cc13)-c1cc3c(c(=O)n1C2)COC(=O)[C@]3(O)CC [SN-38]; conditions: max 0.3 µM
In short: as §1

Olaparib = compound: O=C(c1cc(Cc2n[nH]c(=O)c3ccccc23)ccc1F)N1CCN(C(=O)C2CC2)CC1 [Olaparib]; conditions: max 10 µM
In short: as §1

AZD0156 = compound: CN(C)CCCOc1ccc(-c2ccc3ncc4c(c3c2)n(C2CCOCC2)c(=O)n4C)cn1 [AZD0156]; conditions: max 3 µM
In short: as §1

Lapatinib = compound: CS(=O)(=O)CCNCc1ccc(-c2ccc3ncnc(Nc4ccc(OCc5cccc(F)c5)c(Cl)c4)c3c2)o1 [Lapatinib]; conditions: max 10 µM
In short: as §1

Taselisib = compound: Cc1nc(-c2cn3c(n2)-c2ccc(-c4cnn(C(C)(C)C(N)=O)c4)cc2OCC3)n(C(C)C)n1 [Taselisib]; conditions: max 10 µM
In short: as §1

AZD7648 = compound: Cc1cc2ncnn2cc1Nc1ncc2c(n1)n(C1CCOCC1)c(=O)n2C [AZD7648]; conditions: max 10 µM
In short: as §1

AZD1390 = compound: CC(C)n1c(=O)n(C)c2cnc3cc(F)c(-c4ccc(OCCCN5CCCCC5)nc4)cc3c21 [AZD1390]; conditions: max 0.3 µM
In short: as §1

SG3199 = compound: CC1=CN2[C@@H](C1)C=NC3=CC(=C(C=C3C2=O)OC)OCCCCCOC4=C(C=C5C(=C4)N=C[C@@H]6CC(=CN6C5=O)C)OC [SG3199]; conditions: max 0.001 µM
In short: as §1

Palbociclib = compound: CC(=O)c1c(C)c2cnc(Nc3ccc(N4CCNCC4)cn3)nc2n(C2CCCC2)c1=O [Palbociclib]; conditions: max 10 µM
In short: as §1

AZD4320 = compound: CN(CC[C@H](CSC1=CC=CC=C1)NC2=C(C=C(C=C2)S(=O)(=O)NC(=O)C3=CC=C(C=C3)N4CCC(CC4)[C@H](C5=CC=CC=C5C6=CC=C(C=C6)Cl)O)S(=O)(=O)C(F)(F)F)CCO [AZD4320]; conditions: max 1 µM
In short: as §1

Alisertib = compound: COc1cc(Nc2ncc3c(n2)-c2ccc(Cl)cc2C(c2c(F)cccc2OC)=NC3)ccc1C(=O)O [Alisertib]; conditions: max 10 µM
In short: as §1

AZD5153 = compound: COc1nnc2ccc(N3CCC(c4ccc(OCCN5CCN(C)C(=O)[C@H]5C)cc4)CC3)nn12 [AZD5153]; conditions: max 1 µM
In short: as §1

Trametinib = compound: CC(=O)Nc1cccc(-n2c(=O)n(C3CC3)c(=O)c3c(Nc4ccc(I)cc4F)n(C)c(=O)c(C)c32)c1 [Trametinib]; conditions: max 1 µM
In short: as §1

Capivasertib = compound: C1CN(CCC1(C(=O)N[C@@H](CCO)C2=CC=C(C=C2)Cl)N)C3=NC=NC4=C3C=CN4 [Capivasertib]; conditions: max 10 µM
In short: as §1

Venetoclax = compound: CC1(C)CCC(CN2CCN(c3ccc(C(=O)NS(=O)(=O)c4ccc(NCC5CCOCC5)c([N+](=O)[O-])c4)c(Oc4cnc5[nH]ccc5c4)c3)CC2)=C(c2ccc(Cl)cc2)C1 [Venetoclax]; conditions: max 1 µM
In short: as §1

AZD2811 = compound: CCN(CCO)CCCOc1ccc2c(Nc3cc(CC(=O)Nc4cccc(F)c4)[nH]n3)ncnc2c1 [AZD2811]; conditions: max 1 µM
In short: as §1

Paclitaxel = compound: CC(=O)O[C@H]1C(=O)[C@@]2(C)[C@H]([C@H](OC(=O)c3ccccc3)[C@]3(O)C[C@H](OC(=O)[C@H](O)[C@@H](NC(=O)c4ccccc4)c4ccccc4)C(C)=C1C3(C)C)[C@]1(OC(C)=O)CO[C@@H]1C[C@@H]2O [Paclitaxel]; conditions: max 3 µM
In short: as §1

AZD5363 = compound: C1CN(CCC1(C(=O)N[C@@H](CCO)C2=CC=C(C=C2)Cl)N)C3=NC=NC4=C3C=CN4 [AZD5363]; conditions: max 10 µM
In short: as §1

5-Fluorouracil = compound: O=c1[nH]cc(F)c(=O)[nH]1 [5-Fluorouracil]; conditions: max 20 µM
In short: as §1

SRA737 = compound: N#Cc1cnc(Nc2cc(NC[C@H]3CNCCO3)c(C(F)(F)F)cn2)cn1 [SRA737]; conditions: max 10 µM
In short: as §1

Etoposide = compound: COc1cc([C@@H]2c3cc4c(cc3[C@@H](O[C@@H]3O[C@@H]5CO[C@@H](C)O[C@H]5[C@H](O)[C@H]3O)[C@H]3COC(=O)[C@H]23)OCO4)cc(OC)c1O [Etoposide]; conditions: max 10 µM
In short: as §1

Gemcitabine = compound: Nc1ccn([C@@H]2O[C@H](CO)[C@@H](O)C2(F)F)c(=O)n1 [Gemcitabine]; conditions: max 0.3 µM
In short: as §1

[1] = compound: O=C(Nc1ccc2[nH]nc(-c3ccncc3)c2c1)[C@@H]1CCN(CC(=O)N2CCN(c3ccc(-c4ncccn4)cc3)CC2)C1; conditions: max 5 µM
In short: as §1

MK-2206 = compound: NC1(c2ccc(-c3nc4ccn5c(=O)[nH]nc5c4cc3-c3ccccc3)cc2)CCC1 [MK-2206]; conditions: max 10 µM
In short: as §1

Carboplatin = compound: C1CC(C1)(C(=O)[O-])C(=O)[O-].N.N.[Pt+2] [Carboplatin]; conditions: max 10 µM
In short: as §1

Cell Line | IC50, cell viability 72 h (AZD8186; max 3 µM) | IC50, cell viability 72 h (AZD6738) | IC50, cell viability 72 h (Gefitinib) | IC50, cell viability 72 h (Selumetinib) | IC50, cell viability 72 h (Doxorubicin) | IC50, cell viability 72 h (Crizotinib) | IC50, cell viability 72 h (Savolitinib) | IC50, cell viability 72 h (Prexasertib) | IC50, cell viability 72 h (AZD1775) | IC50, cell viability 72 h (AZD5991) | IC50, cell viability 72 h (Dasatinib) | IC50, cell viability 72 h (SN-38) | IC50, cell viability 72 h (Olaparib) | IC50, cell viability 72 h (AZD0156) | IC50, cell viability 72 h (Lapatinib) | IC50, cell viability 72 h (Taselisib) | IC50, cell viability 72 h (AZD7648) | IC50, cell viability 72 h (AZD1390) | IC50, cell viability 72 h (SG3199) | IC50, cell viability 72 h (Palbociclib) | IC50, cell viability 72 h (AZD4320) | IC50, cell viability 72 h (Alisertib) | IC50, cell viability 72 h (AZD5153) | IC50, cell viability 72 h (Trametinib) | IC50, cell viability 72 h (Capivasertib) | IC50, cell viability 72 h (Venetoclax) | IC50, cell viability 72 h (AZD2811) | IC50, cell viability 72 h (AZD8186; max 10 µM) | IC50, cell viability 72 h (Paclitaxel) | IC50, cell viability 72 h (AZD5363) | IC50, cell viability 72 h (5-Fluorouracil) | IC50, cell viability 72 h (SRA737) | IC50, cell viability 72 h (Etoposide) | IC50, cell viability 72 h (Gemcitabine) | IC50, cell viability 72 h [1] | IC50, cell viability 72 h (MK-2206) | IC50, cell viability 72 h (Carboplatin)
GDM-1 (Acute Myeloid Leukemia) | 1940 nM | 7150 nM | > 10000 nM | > 10000 nM | 326 nM | 1160 nM | > 1000 nM | 40.2 nM | 435 nM | > 1000 nM | 9.37 nM | 4.15 nM | > 10000 nM | > 3000 nM | > 10000 nM | 121 nM | 5190 nM | > 300 nM | > 1 nM | 8090 nM | 83.4 nM | 123 nM | 64.8 nM | > 1000 nM | 8680 nM | 392 nM | 65.6 nM |  |  |  |  |  |  |  |  |  | 
HCC-827 (Lung Adenocarcinoma) | > 3000 nM | > 10000 nM | 84.2 nM | > 10000 nM | > 1000 nM | > 10000 nM | > 1000 nM | 465 nM | > 3000 nM | > 1000 nM | 130 nM | > 300 nM | > 10000 nM | > 3000 nM | 3000 nM | 8540 nM | > 10000 nM | > 300 nM | > 1 nM | > 10000 nM | > 1000 nM | > 10000 nM | > 1000 nM | > 1000 nM | > 10000 nM | > 1000 nM | > 1000 nM |  |  |  |  |  |  |  |  |  | 
SNG-M (Endometrial Carcinoma) |  | 1310 nM | > 10000 nM | > 10000 nM | > 1000 nM | > 10000 nM | > 1000 nM | 23.1 nM | 874 nM | > 1000 nM | 259 nM | 153 nM | > 10000 nM | > 3000 nM | > 10000 nM | 3820 nM | > 10000 nM | > 300 nM | > 1 nM | > 10000 nM | > 1000 nM | 2440 nM | > 1000 nM | > 1000 nM |  | > 1000 nM | > 1000 nM | > 10000 nM | 6.87 nM | > 10000 nM | > 20000 nM | 5190 nM | > 10000 nM | 33 nM | > 5000 nM | > 10000 nM | > 10000 nM
